Structures are written as SMILES.

Data set [1] in a line: residual activity / half life of coelenterazine in solutions with or without antioxidant. The format is physicochemical. As to conditions: 10 μM coelenterazine, 0.1M Tris-HCl pH 7.4/0.3 M Sodium ascorbate vs NaCl, Na2SO3, Thiourea solutions. The protocol:
The following four solutions were prepared, coelenterazine was dissolved at a final concentration of 10 μM, and the residual activity of coelenterazine was examined to determine a half life. In FIG. 7, the half life is shown in the solution of (1) 0.1M Tris-HCl pH 7.4/0.3 M NaCl, (2) 0.1M Tris-HCl pH 7.4/0.3 M Sodium ascorbate, (3) 0.1M Tris-HCl pH 7.4/0.2 M Na2SO3 or (4) 0.1M Tris-HCl pH 7.4/0.2 M Thiourea. […] It is desirable to add sodium ascorbate in the dual reporter assay.

A short description of data set [2]: self-luminescence activity of coelenterazine in 10% FBS solution. Format: physicochemical. As to conditions: 10 μM or 100 μM coelenterazine, 10% FBS medium, with sodium ascorbate salt solution. Here is the method:
The following two solutions were prepared, coelenterazine was dissolved at a final concentration of 10 μM or 100 μM, the solution was mixed with the medium for animal cells (solution containing 10% FBS), and the luminescence for 10 seconds was measured as the background. […] The luminescence activity (RLU: relative light unit) was measured, the ratio of its actually measured value to the self-luminescence was calculated and correctively shown in FIG. 8.

The subject of another data set is copepod luciferase. Description: ratio of luminescence to self-luminescence by copepod luciferase. Format: biochemical. The settings on record: 10 μM or 100 μM coelenterazine, copepod luciferase medium with 10% FBS, with sodium ascorbate salt solution. Here is the method: Using the medium (containing 10% FBS) of copepod luciferase secreted from the animal cells, the coelenterazine solution prepared in Example 8 was dissolved at a final concentration of 10 μM or 100 μM, and the resulting solution was mixed with the medium (containing 10% FBS) for the animal cells at 1:1 (volume ratio), and the luminescence for 10 seconds was measured as the background activity. At that time, a reaction solution was 0.1M Tris-HCl pH 7.4/0.3 M, and the effect with or without the addition of 0.3 M […] was examined. The luminescence activity was measured, the ratio of the actually measured value to the self-luminescence (signal to background) was calculated, and collectively shown in FIG. 9. […] This way, the antioxidant has almost no effect on the oxidation reaction by luciferase and could reduce only the background.

On to `Oc1ccc(Cc2nc3c(Cc4ccccc4)nc(-c4ccc(O)cc4)cn3c2O)cc1` [coelenterazine], for which the half life entry in data set [1] was “widely prolonged”. Further, the “self-luminescence (background, RLU)” value in data set [2] was “reduction of the self-luminescence”. Also, the “ratio of the luminescence to the self-luminescence (signal to background)” value in the data set with copepod luciferase is “at least two times or more”.

(Values after US8367357B2, “Two secretory luciferases” (National Institute of Advanced Industrial Science and …, priority 2006, dated 2013).)
